{"source": "paper PMC10108821", "about": "“Three tyrosine kinase inhibitors cause cardiotoxicity by inducing endoplasmic reticulum stress and inflammation in cardiomyocytes” (BMC Medicine, 2023)", "key": {"[1]": {"test_system": "H9C2 cell line", "assay": "qRT-PCR of inflammatory genes in H9C2 cells", "assay_type": "cell-based, rat", "settings": "ISRIB 200 nM or salubrinal 20 μM with 3 TKIs, 24-hr", "procedure": "(§1) RNA was isolated based on a standard protocol using TRIzol reagent (Vazyme). TRIzol (1ml per 1 well of a 6-well plate) was used to lyse cells and chloroform was added for RNA separation. Samples were shaked vigorously by hand for 15 seconds and incubated at room temperature for 2-3 minutes. RNA was present in the aqueous phase after centrifuge at 12000 x g for 15 minutes. Isopropyl alcohol was mixed to precipitate RNA from the aqueous phase. RNA precipitations were washed with 75% ethanol once and re-dissolved in RNase-free water. 1 μg total RNA was used for cDNA synthesis using a reverse transcription kit (Bioman). We then measured expression of genes of interest with SYBRR Green qPCR Mix (Bioman) using Applied Biosystems 7500 Quantitative PCR Instrument. Gene expression was normalized to the 18S ribosomal RNA expression and primers were listed in Primers Table.\nH9C2 cells were a gift from Dr. Rong Qi in Peking University Health Science Center (they were originally purchased from the Cell Bank/Stem cell bank, Chinese Academy of Science). […] Media was changed to DMEM (Gibco) containing 2% FBS 12 hours before treatment. All treatments were performed under DMEM containing 2% FBS."}, "[2]": {"test_system": "NRCMs", "assay": "qRT-PCR of fetal, pro-inflammatory and ER stress genes with pathway-selective inhibitors", "assay_type": "cell-based, rat", "settings": "24 h", "procedure": "(§2) Rats were euthanized by decapitation and thoracic cavity was opened with scissors and hearts were popped out of the opening gently with fingers. Hearts were clipped and put in HBSS immediately; 20–40 hearts were collected into one sterile vial containing a magnetic stir bar and 1 mL digestive media made of 0.1% trypsin (Macklin) and 0.05% collagenase (Gibco) in HBSS. Hearts were minced until they were uniform in size. Digestive media was added to 10 mL for 40 hearts and stirred gently for 6 min. Supernatant was discarded and the digestion was repeated once; 10 mL digestive media was added and stirred gently for 10 min. The supernatant with cells were collected and the digestion and collection were repeated 4 times. Cells were centrifuged at 1200 rpm for 5 min, resuspended in media (Dulbecco’s modified Eagleʼs medium (Gibco)) with 10% fetal bovine serum (FBS; VISTECH), 1% penicillin–streptomycin, and 1% 0.1 M 5-bromo-2-deoxyuridine solution (Shanghai Yuanye) and filtered through a 40-μm cell strainer. Cells were seeded on a 100-mm plastic dish and cultured in a 5% CO2 incubator at 37 °C for 2 h to allow non-myocytes to adhere to the plate. The dish was swirled and media gently pipetted up and down to detach lightly attached cardiomyocytes. The collected myocytes were seeded in the same media described before; 48 h after plating, medium was exchanged to fresh DMEM (Gibco) with or without 2% FBS. All drug treatments were performed after this media change.\nas §1"}, "[3]": {"test_system": "NRCMs", "procedure": "After treatment, cells were stained with 5 μg/mL Propidium iodide (Sigma-Aldrich) mixed with Hoechst33342 (Solarbio) in Phenol red-free DMEM (Procell) in a 5% CO2 incubator at 37°C for 30 minutes. Images of PI staining were acquired through the filter Ex/Em=555/624nm and of the nuclei staining through the filter Ex/Em=405/452 using ImageXpress Micro Confocal-AWES (Molecular Devices)."}, "[4]": {"test_system": "Cor.4U hiPSC-CMs", "assay": "ATP level (CellTiter-Glo) in hiPSC-CMs", "assay_type": "cell-based, human", "procedure": "ATP content was measured using the CellTiter-Glo Luminescent Cell Viability Assay (Promega) following the manufacturer’s protocol. After adding CellTiter-Glo reagents and incubation, luminescence was quantified using a Synergy H1 plate reader (BioTek Instruments). ATP standards were prepared from 0.01 to 5 μM. For each drug, we fitted a four-parameter log-logistic model to calculate ED50 at day 5 (Fig S1). To rank the cellular toxicity of the eight TKIs (Fig 1T), we calculated (EC50-Cmax)/(EC50+Cmax) and arranged from the smallest to the biggest for increasing cellular toxicity."}, "[5]": {"test_system": "NRCMs", "assay": "Mitochondrial membrane potential by TMRE staining", "assay_type": "cell-based, rat", "settings": "24 h of treatment"}, "[6]": {"test_system": "HELP hiPSC-CMs", "assay": "CardioExcyte 96 microelectrode array: base impedance and extracellular field potential", "assay_type": "cell-based, human", "settings": "fixed doses: 10 µM, crizotinib and ponatinib 3.16 µM; up to 24 h", "procedure": "HELP hiPSC-CMs were seeded evenly into the 96-well microelectrode array, NSP-96 0.6mm sensor plate (Nanion technologies), at 50,000 cells per well. Measurements were started after 3-5 days of culture of these cells and until the impedance and the extracellular field potential are stable. Measurements were taken a few times before drug addition, and every 30~60 minutes after the drugs were added at 2x concentration. Values were averaged from 3 wells per group. Beat rate, amplitude of impedance, base impedance and FPDc were calculated by the Cardio Excyte Control 96 software package (Nanion Technologies)."}, "[7]": {"test_system": "ER stress genes in NRCMs", "assay": "qRT-PCR of ER stress genes in NRCMs", "assay_type": "cell-based, rat", "procedure": "as §2, with “The collected myocytes were seeded in the same media described before; 48 h after plating, medium was exchanged to fresh DMEM (Gibco) with or without 2% FBS.” left out\nas §1, with “RNA precipitations were washed with 75% ethanol once and re-dissolved in RNase-free water.” left out"}, "[8]": {"test_system": "NRCMs", "assay": "Calcium staining with Calbryte 520 AM", "assay_type": "cell-based, rat", "settings": "0.5 and 1 h; 10 µM afatinib, 10 µM sorafenib, 5.62 µM ponatinib"}, "[9]": {"test_system": "Cor.4U hiPSC-CMs", "assay": "3'DGE-UMI RNAseq transcriptome of hiPSC-CMs"}, "[10]": {"test_system": "rat left ventricles", "assay": "Rat gavage cardiotoxicity model: qRT-PCR in left ventricles", "assay_type": "in vivo"}, "[11]": {"test_system": "patients", "settings": "cited from earlier work"}, "[12]": {"test_system": "Phospho-eIF2α, XBP1s, ATF6 (cleaved)", "assay": "Western blot of ER stress effectors in NRCMs", "assay_type": "cell-based, rat"}, "[13]": {"assay": "FDA adverse event reporting system (FAERS) analysis, reporting odds ratios", "settings": "July 2014 to December 2020"}, "[14]": {"test_system": "Sprague-Dawley rats", "assay": "Rat gavage cardiotoxicity model: survival, heart and body weight"}, "[15]": {"test_system": "NRCMs", "assay": "Seahorse assay: oxygen consumption and extracellular acidification", "assay_type": "cell-based, rat", "settings": "24 h; fixed doses: 10 µM, crizotinib and ponatinib 3.16 µM", "procedure": "as §2\nNRCMs were seeded evenly into the Seahorse XF96 cell culture plates (Agilent) and cultured in DMEM high glucose with 2% FBS. About 2 hours before the test, cells were moved to a non-CO2 incubator at 37 ° C and incubated for 1 hour. 1 hour prior to the test, culture media was replaced with the Seahorse Basal DMEM at 37°C (with appropriate concentration of glucose, 4mM L-glutamine, 1 mM sodium pyruvate and 1% penicillin-streptomycin solution) and incubated in a non-CO2 incubator at 37°C for 1 hour. Drugs were prepared at 8x to 10x concentrations with the corresponding seahorse media as in each well and added into ports of Seahorse XF96 cartridge plates which have been hydrated overnight. XFe96 Extracellular Flux Analyzer (Agilent) was used to measure oxygen consumption rate and extracellular acidification rate of cells with different drug treatments."}, "[16]": {"settings": "high PC1 loadings, ponatinib at high dose"}}}
{"compound": "O=C(/C=C/c1ccccc1)NC(NC(=S)Nc1cccc2cccnc12)C(Cl)(Cl)Cl", "note": "(stereo not drawn) [salubrinal]", "values": [{"measurement": "expression of inflammatory genes induced by TKIs", "setting": "[1]", "result": "increased the expression level of some pro-inflammatory genes, such as Nfkb1, Il6, and Tnf, but not Il1b"}]}
{"compound": "O=C(COc1ccc(Cl)cc1)NC1CCC(NC(=O)COc2ccc(Cl)cc2)CC1", "note": "(stereo not drawn) [ISRIB]", "values": [{"measurement": "expression of inflammatory genes induced by TKIs", "setting": "[1]", "result": "blocked upregulation of inflammatory genes (Nfkb1, Il6. and Tnf) by TKIs"}, {"measurement": "expression of Txnip, Il1b, Tnf, Nfkb1 and Il6 induced by TKIs", "setting": "[2]; ISRIB 200 nM co-treatment", "result": "inhibited the expression of Txnip, Il1b, and Tnf to similar degrees as 4μ8c, but did not hamper the expression of Nfkb1 and Il6 as potently as 4μ8c in combination with ponatinib"}, {"measurement": "expression of cardiac fetal genes induced by TKIs", "setting": "[2]; ISRIB 200 nM co-treatment", "result": "inhibited the expression of cardiac fetal genes to a similar level as 4μ8c"}, {"measurement": "effect on Atf4, Ddit3, Xbp1s and Dnajb9 expression induced by TKIs", "setting": "[2]; ISRIB 200 nM or 4μ8c 10 μM with TKIs", "result": "inhibited Atf4 and Ddit3 significantly without affecting the XBP1s axis too much"}, {"measurement": "rescue from cell death induced by sorafenib", "setting": "[3]; ISRIB 200 nM or 4μ8c 10 μM with 10 µM sorafenib, 24-hr", "result": "had no such effect"}]}
{"compound": "Cc1ccc(C(=O)Nc2ccc(CN3CCN(C)CC3)c(C(F)(F)F)c2)cc1C#Cc1cnc2cccnn12", "note": "[ponatinib]", "values": [{"measurement": "effect on ATP levels", "setting": "[4]; 0.32 to 10 µM, day 1 to day 5", "result": "dose-dependent and time-dependent reduction in ATP levels"}, {"measurement": "dose-dependent toxicity (ATP fold changes)", "setting": "[4]; day 1, different doses, RNAseq conditions", "result": "dose-dependent toxicity"}, {"measurement": "mitochondrial membrane potential", "setting": "[5]", "result": "trend of decreasing mitochondrial membrane potentials"}, {"measurement": "effect on beat rate, contraction, base impedance and corrected field potential duration", "setting": "[6]", "result": "reduced beat rate and corrected field potential duration"}, {"measurement": "expression of Dnajb9", "setting": "[7]; 24 h", "result": "most robust upregulation of Dnajb9 among the 3 TKIs"}, {"measurement": "expression of Herpud1", "setting": "[7]; 24 h", "result": "most induced"}, {"measurement": "temporal activation of ER stress genes, 72 versus 24 h", "setting": "[7]; afatinib 5.62 µM, sorafenib 3.16 μM, ponatinib 1.78 μM", "result": "the ATF4 and the ATF6 axes, but not XBP1s, showed time-dependent upregulation"}, {"measurement": "relative activation of the three UPR branches", "setting": "[7]; high-dose treatment, 24 h", "result": "induced activation of three axes to similar degrees"}, {"measurement": "cytosolic calcium concentration", "setting": "[8]", "result": "did not cause any significant changes in calcium concentration"}, {"measurement": "expression of tRNA aminoacylation gene markers (SARS, GARS)", "setting": "[9]; Cluster 3", "result": "increased"}, {"measurement": "expression of genes associated with heart contraction", "setting": "[9]; Cluster 4, day 3 or day 5", "result": "upregulated"}, {"measurement": "expression of genes associated with ER stress (ATF4, NUPR1, DDIT3, TRIB3, CHAC1, SESN2, HERPUD1)", "setting": "[9]; [16]", "result": "upregulated"}, {"measurement": "expression of genes related to cardiomyopathy and sarcomeric structure (MYH7, SYNPO2L, LDB3, ACTN2, MYLK3)", "setting": "[9]; [16]", "result": "downregulated"}, {"measurement": "Dnajb9 expression", "setting": "[10]; day 7, 15 mg/kg", "result": "significantly increased"}, {"measurement": "gene expression of Anp", "setting": "[10]; ponatinib 15 mg/kg, sorafenib 50 mg/kg gavage, 3 or 7 days", "result": "significant increase"}, {"measurement": "incidence of arterial occlusion events", "setting": "[11]", "result": 26, "unit": "%"}, {"measurement": "level of cardiotoxicity based on literature reports", "setting": "[11]; ref Table S1, 2, 4, 26–36", "result": "high-levels of cardiotoxicity"}, {"measurement": "cell death", "setting": "[3]; 24-h treatment, 10 µM afatinib, 10 µM sorafenib, 5.62 µM ponatinib", "result": "very little cell death"}, {"measurement": "duration of activated eIF2α phosphorylation", "setting": "[12]", "result": 24, "unit": "h"}, {"measurement": "cardiotoxicity events in FAERS, reporting odds ratios (RORs)", "setting": "[13]", "result": "caused the most cardiotoxicity with significant reporting odds ratios (RORs)"}, {"measurement": "death of animals", "setting": "[14]; 15 mg/kg gavage once daily, 3 or 7 days", "result": "one rat died"}, {"measurement": "heart or body weight", "setting": "[14]; day 7, ponatinib 15 mg/kg, sorafenib 50 mg/kg gavage once daily", "result": "decreased"}, {"measurement": "basal oxygen consumption rate (OCR)", "setting": "[15]", "result": "trend of inhibiting basal oxygen consumption rate (OCR)"}, {"measurement": "maximal, spare and non-mitochondrial oxygen consumption", "setting": "[15]", "result": "inhibited maximal, spare, and non-mitochondrial oxygen consumption significantly"}]}
